Values quoted from earlier work as cited in patent US20220395499A1, “C[…] AFTER 5HT2A AGONISTS ADMINISTRATION” (Mind Medicine, Inc., priority 2021, published 2022).
Read-outs that look alike come from different tables or passages of the source.

Columns and labels:
[1] = LSD alone, no dose stated
5-HT2B receptors = 5-HT2B receptors (Homo sapiens, UniProt P41595)
CYP3A4 = CYP3A4 (Homo sapiens, UniProt P08684)
[2] = system: adrenergic, dopaminergic, histaminergic, or muscarinic receptors
[3] = not given; remark: listed apart in the source
5HT2A receptor = target: T1, 5HT2A receptor (Homo sapiens, UniProt P28223)
T1 construct: host or cells: human subjects (in vivo, oral dosing)
T1 sequence (P28223 whole entry): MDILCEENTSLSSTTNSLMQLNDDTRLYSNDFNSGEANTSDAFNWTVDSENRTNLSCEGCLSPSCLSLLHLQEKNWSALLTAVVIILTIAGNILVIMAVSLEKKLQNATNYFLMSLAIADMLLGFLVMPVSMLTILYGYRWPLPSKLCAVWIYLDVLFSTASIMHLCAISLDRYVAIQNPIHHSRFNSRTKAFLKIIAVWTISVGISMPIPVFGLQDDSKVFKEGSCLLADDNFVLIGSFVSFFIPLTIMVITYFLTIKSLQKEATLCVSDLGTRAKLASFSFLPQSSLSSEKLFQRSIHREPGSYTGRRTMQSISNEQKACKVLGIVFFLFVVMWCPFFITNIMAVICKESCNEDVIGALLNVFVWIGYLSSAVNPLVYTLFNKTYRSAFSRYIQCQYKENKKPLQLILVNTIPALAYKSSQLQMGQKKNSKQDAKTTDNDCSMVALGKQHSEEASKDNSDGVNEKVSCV

[4] = single 34-mg dose of pimavanserin

Sequence of CYP3A4 (P08684 whole entry): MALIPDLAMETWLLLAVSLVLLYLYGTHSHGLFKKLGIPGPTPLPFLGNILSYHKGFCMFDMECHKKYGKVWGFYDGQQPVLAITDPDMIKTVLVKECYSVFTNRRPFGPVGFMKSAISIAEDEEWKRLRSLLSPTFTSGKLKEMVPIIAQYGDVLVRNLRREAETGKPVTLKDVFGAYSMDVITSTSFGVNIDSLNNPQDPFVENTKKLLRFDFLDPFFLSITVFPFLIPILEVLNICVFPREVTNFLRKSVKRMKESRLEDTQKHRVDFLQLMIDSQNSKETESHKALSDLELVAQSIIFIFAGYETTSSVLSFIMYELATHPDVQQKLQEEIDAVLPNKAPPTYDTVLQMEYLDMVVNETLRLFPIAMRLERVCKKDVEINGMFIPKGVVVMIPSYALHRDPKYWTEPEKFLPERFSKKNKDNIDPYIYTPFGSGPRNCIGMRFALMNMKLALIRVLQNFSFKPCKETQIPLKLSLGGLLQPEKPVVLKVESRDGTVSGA
Sequence of 5-HT2B receptors (P41595 whole entry): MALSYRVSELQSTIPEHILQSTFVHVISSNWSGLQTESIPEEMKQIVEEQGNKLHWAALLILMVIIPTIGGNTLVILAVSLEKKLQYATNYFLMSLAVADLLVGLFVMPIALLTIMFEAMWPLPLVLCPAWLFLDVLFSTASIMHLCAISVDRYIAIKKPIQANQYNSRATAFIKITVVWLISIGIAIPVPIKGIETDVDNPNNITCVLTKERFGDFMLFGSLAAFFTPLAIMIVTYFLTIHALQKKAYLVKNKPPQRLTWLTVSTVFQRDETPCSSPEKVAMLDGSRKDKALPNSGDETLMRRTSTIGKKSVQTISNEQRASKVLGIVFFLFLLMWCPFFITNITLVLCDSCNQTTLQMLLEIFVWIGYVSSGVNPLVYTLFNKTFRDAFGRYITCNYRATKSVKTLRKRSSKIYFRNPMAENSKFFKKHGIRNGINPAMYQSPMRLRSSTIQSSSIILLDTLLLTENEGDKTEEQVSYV

For `CC(C)COc1ccc(CNC(=O)N(Cc2ccc(F)cc2)C2CCNCC2)cc1` [AC-279], which “half-life of the active N-desmethylated metabolite” value (metabolite of pimavanserin) is on record?
Its value is 200 h.

Which “usual duration of action” value [1] does the source give for `CCN(CC)C(=O)[C@@H]1C=C2c3cccc4[nH]cc(c34)C[C@H]2N(C)C1` [LSD, Lysergic acid diethylamide] here?
The value was 8 to 12 h.

For `CC(C)COc1ccc(CNC(=O)N(Cc2ccc(F)cc2)C2CCN(C)CC2)cc1` [Pimavanserin, pimavanserin], which half-life [4] is on record?
Its half-life is “approximately 57 hours”.

What about the “mean (SD) apparent volume of distribution” value [4] of the same compound?
Its value is 2,173 (307) L.

What about the “time to maximum plasma concentration” value [4] of the same compound?
Its value is “six”.

And the “affinity for 5-HT2B receptors” value (5-HT2B receptors)?
The value was “no affinity”.

And the “CYP3A4 inhibition or induction” value (CYP3A4)?
The value was “does not cause significant CYP3A4 inhibition or induction”.

What about the “antagonism of adrenergic, dopaminergic, histaminergic, or muscarinic receptors” value [2] of the same compound?
The value was “does not induce clinically significant antagonism”.

And the plasma protein binding [3]?
Its plasma protein binding is “highly bound to plasma protein”.

For `O=C(c1ccc(F)cc1)C1CCN(CCn2c(=O)[nH]c3ccccc3c2=O)CC1` [ketanserin], which “effect on the LSD experience” value (5HT2A receptor; ketanserin 40 mg orally 1 hour prior to a high dose of LSD of 200 μg, Liechti) is on record?
Its value is “prevented the LSD experience”.

And the “effect on the LSD experience” value (5HT2A receptor; ketanserin 40 mg orally 1 hour prior to oral LSD at a moderate dose (70-100 μg), Preller et al., 2017)?
Its value is “prevent the LSD experience almost completely”.
